Experimental findings from ChEMBL document CHEMBL3091394, “Novel tacrine-ebselen hybrids with improved cholinesterase inhibitory, hydrogen peroxide and peroxynitrite scavenging activity” (Bioorg Med Chem Lett, 2013) are described below.

Data set [1] deals with Cholinesterase (Equus caballus, UniProt P81908).
Description: Inhibition of equine serum BuChE using butylthiocholine chloride as substrate preincubated for 15 mins by Ellman's method
Data set [2] addresses Acetylcholinesterase (Electrophorus electricus, UniProt O42275).
Description: Inhibition of electric eel AChE using acetylthiocholine chloride as substrate preincubated for 15 mins by Ellman's method
Data set [3] is described as follows: Antioxidant activity assessed as hydrogen peroxide radical scavenging activity at 12.5 uM after 10 hrs by horseradish peroxidase assay. In kind it is functional.
Data set [4] in a line: Antioxidant activity assessed as hydrogen peroxide radical scavenging activity at 25 uM after 10 hrs by horseradish peroxidase assay. Format: functional.
Data set [5] can be described thus: Antioxidant activity assessed as pyrogallol red dye bleaching-induced peroxynitrite scavenging activity up to 62.5 uM relative to ebselen. Format: functional.
Data set [6] can be described thus: Antioxidant activity assessed as hydrogen peroxide radical scavenging activity at 20 to 100 uM after 10 hrs by horseradish peroxidase assay. Format: functional.
Data set [7] deals with Acetylcholinesterase (Homo sapiens, UniProt P22303). Briefly: Inhibition of human AChE using acetylthiocholine chloride as substrate preincubated for 15 mins by Ellman's method.
Acetylcholinesterase (Homo sapiens, UniProt P22303), sequence (P22303 whole entry): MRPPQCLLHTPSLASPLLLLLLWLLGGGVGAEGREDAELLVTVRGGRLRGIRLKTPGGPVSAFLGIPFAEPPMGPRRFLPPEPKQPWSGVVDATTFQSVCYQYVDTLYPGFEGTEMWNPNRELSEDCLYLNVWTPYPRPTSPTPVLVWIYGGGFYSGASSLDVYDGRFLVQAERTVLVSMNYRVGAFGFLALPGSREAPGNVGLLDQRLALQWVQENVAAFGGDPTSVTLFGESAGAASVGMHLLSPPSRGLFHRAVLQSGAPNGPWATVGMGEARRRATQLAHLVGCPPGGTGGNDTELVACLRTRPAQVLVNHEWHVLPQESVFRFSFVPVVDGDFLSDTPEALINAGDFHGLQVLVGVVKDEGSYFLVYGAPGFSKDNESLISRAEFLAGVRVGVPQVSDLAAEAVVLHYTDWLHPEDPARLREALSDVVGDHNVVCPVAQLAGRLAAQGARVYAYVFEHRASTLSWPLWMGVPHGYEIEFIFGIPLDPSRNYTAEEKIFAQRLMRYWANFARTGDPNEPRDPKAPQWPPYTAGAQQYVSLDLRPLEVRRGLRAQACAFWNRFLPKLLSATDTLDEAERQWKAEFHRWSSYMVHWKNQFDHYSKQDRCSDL
Data set [8] is described as follows: Cytotoxicity against human HSC assessed as cell viability at 5 to 10 uM after 24 hrs by MTT assay.

Active and inactive are the calls of the source. No cut-off for these calls is given here.

Acetylcholinesterase (Electrophorus electricus, UniProt O42275), sequence (O42275 whole entry): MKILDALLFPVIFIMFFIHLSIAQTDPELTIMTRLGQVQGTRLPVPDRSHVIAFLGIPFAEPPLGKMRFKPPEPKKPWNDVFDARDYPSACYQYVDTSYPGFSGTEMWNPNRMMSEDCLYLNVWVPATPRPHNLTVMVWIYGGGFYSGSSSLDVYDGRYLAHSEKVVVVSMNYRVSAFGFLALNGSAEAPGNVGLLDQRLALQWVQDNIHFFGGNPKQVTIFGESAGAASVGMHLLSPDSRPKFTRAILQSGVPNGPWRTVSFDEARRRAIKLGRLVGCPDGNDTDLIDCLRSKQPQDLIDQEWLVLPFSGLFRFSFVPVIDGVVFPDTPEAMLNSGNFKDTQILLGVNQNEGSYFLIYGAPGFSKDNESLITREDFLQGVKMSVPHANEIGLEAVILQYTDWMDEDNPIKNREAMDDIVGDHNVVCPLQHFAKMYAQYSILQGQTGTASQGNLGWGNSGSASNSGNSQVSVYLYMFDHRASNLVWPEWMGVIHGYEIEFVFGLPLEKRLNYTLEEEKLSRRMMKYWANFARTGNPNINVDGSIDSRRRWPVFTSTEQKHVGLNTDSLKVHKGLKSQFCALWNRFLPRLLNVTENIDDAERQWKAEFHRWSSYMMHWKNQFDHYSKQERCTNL
Cholinesterase, sequence (P81908 whole entry): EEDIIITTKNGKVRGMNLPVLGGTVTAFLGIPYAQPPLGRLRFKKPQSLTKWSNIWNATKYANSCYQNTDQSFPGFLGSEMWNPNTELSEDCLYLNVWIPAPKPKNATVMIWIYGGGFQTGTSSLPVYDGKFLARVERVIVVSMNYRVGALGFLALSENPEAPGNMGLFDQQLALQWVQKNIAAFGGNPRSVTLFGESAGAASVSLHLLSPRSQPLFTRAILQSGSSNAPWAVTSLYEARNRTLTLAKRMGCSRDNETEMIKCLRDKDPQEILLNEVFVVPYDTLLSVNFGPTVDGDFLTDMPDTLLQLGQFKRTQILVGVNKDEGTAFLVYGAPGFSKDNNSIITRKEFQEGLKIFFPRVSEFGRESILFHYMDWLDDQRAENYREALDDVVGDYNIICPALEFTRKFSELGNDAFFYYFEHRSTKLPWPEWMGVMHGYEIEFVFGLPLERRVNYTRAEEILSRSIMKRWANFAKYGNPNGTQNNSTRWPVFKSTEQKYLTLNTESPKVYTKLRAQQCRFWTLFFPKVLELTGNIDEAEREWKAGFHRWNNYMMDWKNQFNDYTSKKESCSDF

As for `O=c1c2ccccc2[se]n1CCNc1c2c(nc3ccccc13)CCCC2`, the half-inhibitory concentration (IC50) in data set [1] worked out at 38.9 nM; in data set [2], 657 nM.

For `O=c1c2ccccc2[se]n1CCCNc1c2c(nc3ccccc13)CCCC2`, the figures for the IC50 in data set [1] and in data set [2] were 28.5 nM and 423 nM, respectively.

As to `O=c1c2ccccc2[se]n1CCCCCCCNc1c2c(nc3ccccc13)CCCC2`, the IC50 was determined as 14 nM in data set [1] and 26.5 nM in data set [2].

With `O=c1c2ccccc2[se]n1CCCCCCNc1c2c(nc3ccccc13)CCCC2`, the outcome in data set [3] and in data set [6] was Active. For the same molecule, in data set [4], the Activity was determined as 70%. Further, in data set [5], the Ratio is 1.17. Moreover, the results for the IC50 in data set [7], in data set [1] and in data set [2] were 19.5 nM, 4.37 nM and 6.32 nM, respectively.

For the molecule `O=c1c2ccccc2[se]n1CCCCNc1c2c(nc3ccccc13)CCCC2`, the values for the concentration for half-maximal inhibition (IC50) in data set [1] and in data set [2] were 4.94 nM and 152 nM, respectively.

`COc1cc2[se]n(CCCCCCNc3c4c(nc5ccccc35)CCCC4)c(=O)c2cc1OC`: the Activity result in data set [8] was “Non-toxic”; in data set [4], 83.7%. The outcome in data set [3] and in data set [6] was Active. In addition, in data set [5], the Ratio is 1.26. Moreover, the concentration for half-maximal inhibition (IC50) in data set [7] amounted to 15.1 nM; in data set [1], 2.8 nM; in data set [2], 2.55 nM.

For the molecule `c1ccc2c(NCCCCCCCNc3c4c(nc5ccccc35)CCCC4)c3c(nc2c1)CCCC3`, the IC50 stood at 4.08 nM in data set [1] and 0.17 nM in data set [2].

Turning to `O=c1c2ccccc2[se]n1CCCCCCCCNc1c2c(nc3ccccc13)CCCC2`, the IC50 is 16.6 nM in data set [1] and 24.1 nM in data set [2].

For `O=c1c2ccccc2[se]n1-c1ccccc1`, the result in data set [3] and in data set [6] was Active. Also, the Activity in data set [4] was found to be 89.7%.

As to `O=c1c2ccccc2[se]n1CCCCCCCCCNc1c2c(nc3ccccc13)CCCC2`, the half-inhibitory concentration (IC50) in data set [1] is 25.8 nM; in data set [2] it was 32 nM.

Consider `O=c1c2ccccc2[se]n1CCCCCNc1c2c(nc3ccccc13)CCCC2`, for which the figures for the IC50 in data set [1] and in data set [2] were 4.52 nM and 70.8 nM, respectively.
